{"source": "patent US20070072246A1", "about": "“Cell-based assays for determining drug action” (priority 2003, published 2007)", "molecules": {"B1": {"name": "IL-10: Recombinant human IL-10 (protein, UniProt P22301 19-178, looked up)", "Interleukin-10": "SPGQGTQSENSCTHFPGNLPNMLRDLRDAFSRVKTFFQMKDQLDNLLLKESLLEDFKGYLGCQALSEMIQFYLEEVMPQAENQDPDIKAHVNSLGENLKTLRLRLRRCHRFLPCENKSKAVEQVKNAFNKLQEKGIYKAMSEFDIFINYIEAYMTMKIRN"}}, "data": [{"system": "primary human endothelial cells (EC)", "assay": "3C system: endothelial cells stimulated with IL-1β, TNF-α and IFN-γ, readout parameters by cell-based ELISA", "settings": "24 hr cytokine activation; non-toxic concentrations", "procedure": "Cell culture. Human umbilical vein endothelial cells (HUVEC) were obtained from Cascade Biologics (Portland, Oreg.) and cultured in EGM-2 medium containing supplements provided by the manufacturer and 2% heat inactivated fetal bovine serum (Hyclone, Logan, Utah) and subcultured with 0.05% trypsin-0.53 mM EDTA (Mediatech, Herndon, Va.) as described by the manufacturer. […] Experiments were performed by culturing HUVEC in microtiter plates (Falcon; BD Biosciences), in the presence of cytokines (IL-1β, 1 ng/ml; TNF-α, 5 ng/ml; and IFN-γ, 100 ng/ml), activators (SAg, 20 ng/ml or LPS, 0.2 ng/ml), and/or PBMC (7.5×10^4) for the indicated times. Drugs were added 1 hr before stimulation and were present during the whole 24 hr stimulation period.\nCell-based ELISAs. […] Briefly, microtiter plates containing treated and stimulated HUVEC (or HUVEC/PBMC) were blocked, and then incubated with primary antibodies or isotype control antibodies (0.01-0.5 μg/ml) for 1 hr. […] Plates were washed and developed with TMB substrate (Clinical Science Products, Mansfield, Mass.) and the absorbance (OD) was read at 450 nm (subtracting the background absorbance at 650 nm) with a Molecular Devices SpectraMAX 190 plate reader (Molecular Devices, Sunnyvale, Calif.).\nData analysis. Mean OD values for each parameter were calculated from triplicate samples per experiment. […]", "values": [{"molecule": "O=c1cc(-c2ccc(O)cc2)oc2cc(O)cc(O)c12", "note": "[apigenin]", "activity in the 3C (endothelial inflammation) system": "induces a characteristic response profile"}, {"molecule": "COc1cccc(-c2cc(=O)c3ccccc3o2)c1N", "note": "[PD098059]", "activity in the 3C (endothelial inflammation) system": "induces a characteristic response profile"}]}, {"system": "PBMC and endothelial cell co-culture", "assay": "SAg system: PBMC and endothelial cell co-culture stimulated with superantigen", "format": "cell-based, human", "settings": "not given", "values": [{"molecule": "CC(C)(C)n1nc(-c2ccc(Cl)cc2)c2c(N)ncnc21", "note": "[PP2]", "activity in the SAg system": "active"}, {"molecule": "IL-1 receptor antagonist: Recombinant human IL-1ra", "activity in the SAg system": "detects inhibition"}, {"molecule": "Cc1ccc(-c2nn(C(C)(C)C)c3ncnc(N)c23)cc1", "note": "[PP1]", "activity in the SAg system": "active"}, {"molecule": "B1", "activity in the SAg system": "active"}]}, {"system": "PBMC and endothelial cell co-culture", "assay": "SAg system: PBMC and endothelial cell co-culture stimulated with superantigen", "format": "cell-based, human", "settings": "24 hr SAg stimulation; non-toxic concentrations", "values": [{"molecule": "COc1ccc(C2CNC(=O)C2)cc1OC1CCCC1", "note": "(stereo not drawn) [rolipram]", "activity in the SAg system": "active"}, {"molecule": "COc1cc2ncnc(Nc3ccc(O)cc3)c2cc1OC", "note": "[WHI-P131]", "activity in the SAg system": "active"}, {"molecule": "Nc1nccc(-c2c(-c3ccc(F)cc3)ncn2C2CCNCC2)n1", "note": "[SB220025]", "activity in the SAg system": "retain activity"}, {"molecule": "CC(C)N(CCC(=O)c1ccc2ccccc2c1)Cc1ccccc1", "note": "[ZM39923]", "activity in the SAg system": "active"}, {"molecule": "CCCCOc1cc(CC2CNC(=O)N2)ccc1OC", "note": "(stereo not drawn) [Ro-20-1274]", "activity in the SAg system": "active"}, {"molecule": "CO[C@H]1C[C@@H]2CC[C@@H](C)[C@@](O)(O2)C(=O)C(=O)N2CCCC[C@H]2C(=O)O[C@H]([C@H](C)C[C@@H]2CC[C@@H](O)[C@H](OC)C2)CC(=O)[C@H](C)/C=C(\\C)[C@@H](O)[C@@H](OC)C(=O)[C@H](C)C[C@H](C)/C=C/C=C/C=C/1C", "note": "[rapamycin]", "activity in the SAg system": "active"}]}]}
